Data taken from article PMC7841422, “Predicting Volume of Distribution in Humans: Performance of In Silico Methods for a Large Set of Structurally Diverse Clinical Compounds” (Drug Metabolism and Disposition, 2021).

Assay: Blood-to-plasma partition ratio in human blood
Format: in vitro ADME
Conditions: human whole blood (K2EDTA as anticoagulant), control compounds, 37°C, 60 minutes incubation, LC/MS/MS, read-out: Blood-to-plasma partition ratio (BPR)
Experimental: In vitro measurement of blood-to-plasma partition was conducted in human blood (K2EDTA as anticoagulant) obtained from a commercial source (BioReclamation IVT, Liverpool, NY). Hematocrit (the ratio of volume of red blood cells to total blood) was measured by centrifugation of the whole blood at 3000 rpm for 10 minutes using microhematocrit capillary tubes. Control plasma was prepared from a portion of the whole blood by centrifugation at 3000g for 10 minutes. Both whole blood and control plasma samples were warmed at 37°C in a water bath for 30 minutes. Subsequently, the test compounds (1 µM in the final concentration) and controls [methazolamide (BPR ∼1) and metoprolol (BPR […])] were spiked into blood and incubated at 37°C (5% CO2) with shaking at 200 rpm for 60 minutes along with control samples. After incubation for 60 minutes, the incubated whole blood was removed from the water bath, and the plasma was separated by centrifugation at 1000g for 10 minutes. Aliquots of the control plasma were also removed. […] Test compounds and internal standard response (or peak area) ratio in whole blood and its resulting plasma were measured using liquid chromatography with tandem mass spectrometry (LC/MS/MS). Blood-to-plasma partition was calculated by ratio of mass spectrometric response of compounds in blood samples after 60 minutes of incubation to mass spectrometric response in plasma samples.

Structure (SMILES)	blood plasma ratio at 60 min
COCCc1ccc(OCC(O)CNC(C)C)cc1 (centres unmarked) [metoprolol]	~40
CC(=O)/N=c1/sc(S(N)(=O)=O)nn1C [methazolamide]	~1
